Values of other authors as cited in patent publication US20230089090A1, “Composition for Treating Viral Infections” (priority 2020, published 2023).

Tests used:
[1] = both flavonols administered simultaneously
[2] = in vivo, 10 mg/kg
[3] = system: HIV-1 infected lymphocytes; conditions: similar to DRB and cell control
[4] = system: androgen receptor (AR)-positive C4-2 cells; conditions: single compounds, read-out: half minimal inhibitory concentration (IC50)
human furin = human furin (Homo sapiens, UniProt P09958)
Sequence of human furin (P09958 108-794): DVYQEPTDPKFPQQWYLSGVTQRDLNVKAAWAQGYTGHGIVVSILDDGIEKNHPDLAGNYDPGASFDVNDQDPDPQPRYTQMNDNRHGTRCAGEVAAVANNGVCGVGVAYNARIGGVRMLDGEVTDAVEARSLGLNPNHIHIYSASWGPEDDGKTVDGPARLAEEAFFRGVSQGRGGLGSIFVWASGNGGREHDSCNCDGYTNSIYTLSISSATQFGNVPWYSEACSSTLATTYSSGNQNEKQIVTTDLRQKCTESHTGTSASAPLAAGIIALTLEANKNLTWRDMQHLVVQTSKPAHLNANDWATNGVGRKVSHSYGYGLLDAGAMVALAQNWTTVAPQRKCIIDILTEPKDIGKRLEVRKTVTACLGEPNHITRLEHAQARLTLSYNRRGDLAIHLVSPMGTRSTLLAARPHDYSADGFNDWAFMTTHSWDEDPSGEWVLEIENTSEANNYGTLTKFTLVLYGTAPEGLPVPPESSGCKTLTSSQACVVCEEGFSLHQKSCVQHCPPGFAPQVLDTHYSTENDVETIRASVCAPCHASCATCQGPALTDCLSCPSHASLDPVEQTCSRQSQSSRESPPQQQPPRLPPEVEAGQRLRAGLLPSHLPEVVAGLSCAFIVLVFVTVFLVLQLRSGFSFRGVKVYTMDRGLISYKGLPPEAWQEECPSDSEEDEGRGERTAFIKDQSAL

[5] = significant amount excreted over a 24-h period

In the case of `O=c1c(O)c(-c2ccc(O)cc2)oc2cc(O)cc(O)c12` [kaempferol, 3,4′,5,7-tetrahydroxyflavone], the “effect on efflux of quercetin” value [1] is given as “blocked the efflux of quercetin”.
In the case of `O=c1cc(-c2ccc(O)c(O)c2)oc2cc(O)cc(O)c12` [luteolin, 2-(3,4-dihydroxyphenyl)-5,7-dihydroxy-4-chromenone], the adverse effects [2] is given as “Major adverse effects had not been observed”, the dengue virus replication (dengue virus; through inhibition of the proprotein convertase furin) is given as “restricts dengue virus replication” and the “prM cleavage in virus particles” value (dengue virus; virus particles from luteolin-treated cells) is given as “not cleaved efficiently”. The cell aggregation/syncytia [3] was “inhibition in cell aggregation/syncytia”, the IC50 [4] was 114 µM and the “manner of inhibition of the enzyme activity” value (human furin) was “uncompetitive”. The Ki (human furin; uncompetitive inhibition) was 58.6 µM.
In the case of `O=c1c(O)c(-c2ccc(O)c(O)c2)oc2cc(O)cc(O)c12` [quercetin, 2-(3,4-dihydroxyphenyl)-3,5,7-trihydroxy-4H-chromen-4-one], the “clearance and half-life in the blood” value [5] is listed as “rapid clearance and a short half-life”.
